Results as given in US20250074871A1, “PHENETHYLAMINES AND METHODS OF PREPARATION THEREOF” (priority 2022, published 2025).
Values joined by “and” are separate entries in the source; they are usually repeats but may differ in a detail not shown here. Identical values can stand only once. Like-named read-outs stand apart in the source and are kept apart here.

Columns and labels:
[1] = target: 5-HT6 (Homo sapiens, UniProt P50406); test: 5-HT receptor activity panel (Table 3); type: cell-based
[2] = target: 5-HT7 (Homo sapiens, UniProt P34969); test: 5-HT receptor activity panel (Table 3); type: cell-based
Sequence of 5-HT7 (P34969 whole entry, species assumed): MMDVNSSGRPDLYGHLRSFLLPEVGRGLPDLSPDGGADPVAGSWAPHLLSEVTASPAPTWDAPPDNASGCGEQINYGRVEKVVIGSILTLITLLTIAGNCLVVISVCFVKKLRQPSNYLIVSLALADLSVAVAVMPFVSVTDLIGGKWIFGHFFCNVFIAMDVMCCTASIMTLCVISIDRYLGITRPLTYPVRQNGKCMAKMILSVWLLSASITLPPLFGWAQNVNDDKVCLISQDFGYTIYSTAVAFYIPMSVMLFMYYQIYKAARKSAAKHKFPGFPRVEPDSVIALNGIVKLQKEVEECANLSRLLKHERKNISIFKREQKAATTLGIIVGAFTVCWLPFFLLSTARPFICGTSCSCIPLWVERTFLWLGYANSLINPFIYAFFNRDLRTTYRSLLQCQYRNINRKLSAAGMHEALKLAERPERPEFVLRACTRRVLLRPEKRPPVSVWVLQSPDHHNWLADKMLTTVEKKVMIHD

[3] = test system: mice; test: head-twitch response (HTR) in mice; type: in vivo, male C57BL/6J mice; settings: for ED50: Mus musculus
Method: As used herein and unless otherwise specified, the term “HTR” refers to head-twitch response, which is a measurement of 5-HT2A activation in vivo.
As used herein and unless otherwise specified, the term “mice” refers to male C57BL/6J mice (6-8 weeks old).
HTR was assessed using a head-mounted neodymium magnet and a magnetometer detection coil, as described in Halberstadt et al., Psychopharmacology (Berl.), 2013, 227(4): 727-739. Table 8 below summarizes the ED50 in head twitch in mice of various compounds disclosed herein as compared to psilocybin. FIG. 3 illustrates the HTR relative to dose for compound 109: […]

[4] = target: T1, 5-HT2B receptor (Homo sapiens, UniProt P41595); test: 5-HT2B Gq dissociation BRET functional assay; type: cell-based; settings: for 5-HT2B BRET Eff %: normalized to % 5-HT stimulation
T1 construct: expressed in transfected cells; host or cells: HEK293T
T1 sequence (P41595 whole entry): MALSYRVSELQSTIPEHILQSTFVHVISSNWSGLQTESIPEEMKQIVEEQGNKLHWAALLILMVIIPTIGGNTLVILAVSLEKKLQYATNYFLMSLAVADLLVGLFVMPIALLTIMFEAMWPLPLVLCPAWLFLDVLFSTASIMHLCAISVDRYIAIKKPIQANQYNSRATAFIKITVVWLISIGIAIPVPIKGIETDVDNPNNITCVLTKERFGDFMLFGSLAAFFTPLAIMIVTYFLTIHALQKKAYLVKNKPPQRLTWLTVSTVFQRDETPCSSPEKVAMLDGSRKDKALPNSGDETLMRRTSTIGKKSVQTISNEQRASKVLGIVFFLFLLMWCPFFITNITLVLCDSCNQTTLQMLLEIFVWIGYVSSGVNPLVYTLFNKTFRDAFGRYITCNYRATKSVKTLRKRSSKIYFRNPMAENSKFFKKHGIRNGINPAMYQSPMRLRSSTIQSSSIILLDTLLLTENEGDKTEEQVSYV

[5] = target: T2, 5-HT1A (Homo sapiens, UniProt P08908); test: 5-HT receptor activity panel (Table 3); type: cell-based; settings: Table 3
T2 sequence (P08908 1-422): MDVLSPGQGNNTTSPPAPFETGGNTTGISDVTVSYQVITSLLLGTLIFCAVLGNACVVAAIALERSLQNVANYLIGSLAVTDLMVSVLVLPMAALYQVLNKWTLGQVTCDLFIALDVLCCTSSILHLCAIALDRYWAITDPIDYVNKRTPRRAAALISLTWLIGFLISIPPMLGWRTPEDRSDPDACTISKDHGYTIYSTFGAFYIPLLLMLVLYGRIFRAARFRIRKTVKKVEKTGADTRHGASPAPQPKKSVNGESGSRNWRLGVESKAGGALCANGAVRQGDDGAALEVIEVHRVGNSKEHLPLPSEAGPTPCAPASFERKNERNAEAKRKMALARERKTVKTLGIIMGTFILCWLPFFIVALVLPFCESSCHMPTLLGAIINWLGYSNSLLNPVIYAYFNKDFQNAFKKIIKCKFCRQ

[6] = target: 5-HT1B (Homo sapiens, UniProt P28222); test: 5-HT receptor activity panel (Table 3); type: cell-based; settings: Table 3
Sequence of 5-HT1B (P28222 whole entry, species assumed): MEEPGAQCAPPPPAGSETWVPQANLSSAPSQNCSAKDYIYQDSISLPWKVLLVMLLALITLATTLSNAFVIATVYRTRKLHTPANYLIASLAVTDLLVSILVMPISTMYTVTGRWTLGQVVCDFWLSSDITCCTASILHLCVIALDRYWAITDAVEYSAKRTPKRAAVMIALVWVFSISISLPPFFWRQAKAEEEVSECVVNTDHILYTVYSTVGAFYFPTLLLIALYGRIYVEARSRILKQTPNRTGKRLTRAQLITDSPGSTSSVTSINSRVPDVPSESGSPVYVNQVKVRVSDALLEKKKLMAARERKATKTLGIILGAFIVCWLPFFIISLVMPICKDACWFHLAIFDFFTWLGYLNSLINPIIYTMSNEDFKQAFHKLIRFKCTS

[7] = target: 5-HT1E (Homo sapiens, UniProt P28566); test: 5-HT receptor activity panel (Table 3); type: cell-based
Sequence of 5-HT1E (P28566 whole entry, species assumed): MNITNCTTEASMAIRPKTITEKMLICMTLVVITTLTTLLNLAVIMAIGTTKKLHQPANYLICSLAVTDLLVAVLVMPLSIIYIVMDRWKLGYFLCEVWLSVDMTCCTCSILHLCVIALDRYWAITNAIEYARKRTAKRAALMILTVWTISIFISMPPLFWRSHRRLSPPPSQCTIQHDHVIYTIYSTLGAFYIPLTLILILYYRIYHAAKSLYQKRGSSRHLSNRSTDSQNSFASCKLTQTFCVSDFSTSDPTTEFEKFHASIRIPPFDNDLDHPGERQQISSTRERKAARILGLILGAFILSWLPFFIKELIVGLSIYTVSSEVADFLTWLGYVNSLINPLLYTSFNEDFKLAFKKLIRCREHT

[8] = in vitro hepatocyte clearance, rat; type: in vitro ADME; settings: for hepatocyte CLint / half-life: Rat hepatocytes; for hepatocyte CLint: read-out: In vitro Clint (μL/min/10^6 cells); for half-life: read-out: In vitro T1/2; for CLint scaled: rat, hepatocytes, read-out: Scale-up Clint
Method: (§1) Additional experimentation was performed on compound 109. Table 6 summarizes, among other things, the anticipated hepatic clearance of compound 109 in various species, as specified in Table 6 and as determined by calculating the in vitro hepatocyte clearance over time and scaling such rate with such species' hepatocyte count and the anticipated liver blood flow rate in such species.

[9] = test system: hepatocyte; test: in vitro hepatocyte clearance, rat; type: in vitro ADME; settings: Rat
Method: as §1

[10] = plasma and brain PK in mice; type: in vivo; settings: mouse; for Kp: brain; for clearance: read-out: Cltot (converted); for half-life: read-out: T1/2 Vz (converted); for Vd: read-out: Vz
Source text: (§2) Table 7a and Table 7b summarize, among other things, the observed plasma and Brain P K properties in animals, and the observed plasma and Brain P K properties predicted in humans, for compound 109 in Table 7a and compound 93 for Table 7b: […]

[11] = target: T3, 5-HT1F (Homo sapiens, UniProt P30939); test: 5-HT receptor activity panel (Table 3); type: cell-based
T3 sequence (P30939 1-366): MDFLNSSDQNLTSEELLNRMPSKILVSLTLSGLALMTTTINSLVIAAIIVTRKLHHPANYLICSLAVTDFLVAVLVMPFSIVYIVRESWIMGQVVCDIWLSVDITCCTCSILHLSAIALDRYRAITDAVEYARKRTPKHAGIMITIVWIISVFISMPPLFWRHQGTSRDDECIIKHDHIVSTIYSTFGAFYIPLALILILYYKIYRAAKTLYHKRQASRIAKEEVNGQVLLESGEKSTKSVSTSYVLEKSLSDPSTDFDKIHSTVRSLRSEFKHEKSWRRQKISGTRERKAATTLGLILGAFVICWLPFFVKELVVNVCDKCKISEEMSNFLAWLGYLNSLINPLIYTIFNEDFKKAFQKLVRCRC

[12] = plasma and brain PK predicted in humans; settings: Human (predicted); for Kp: brain; for clearance: read-out: Cltot (converted); for half-life: read-out: T1/2 Vz (converted); for Vd: read-out: Vz
Source text: as §2

[13] = in vitro hepatocyte clearance, human; type: in vitro ADME; settings: Human hepatocytes; for hepatocyte CLint: read-out: In vitro Clint (μL/min/10^6 cells); for half-life: read-out: In vitro T1/2; for CLint scaled: read-out: Scale-up Clint
Method: as §1

[14] = test system: hepatocyte; test: in vitro hepatocyte clearance, human; type: in vitro ADME; settings: Human
Method: as §1

[15] = read-out: Brain Plasma AUC Ratio

Sequence of 5-HT6 (P50406 whole entry, species assumed): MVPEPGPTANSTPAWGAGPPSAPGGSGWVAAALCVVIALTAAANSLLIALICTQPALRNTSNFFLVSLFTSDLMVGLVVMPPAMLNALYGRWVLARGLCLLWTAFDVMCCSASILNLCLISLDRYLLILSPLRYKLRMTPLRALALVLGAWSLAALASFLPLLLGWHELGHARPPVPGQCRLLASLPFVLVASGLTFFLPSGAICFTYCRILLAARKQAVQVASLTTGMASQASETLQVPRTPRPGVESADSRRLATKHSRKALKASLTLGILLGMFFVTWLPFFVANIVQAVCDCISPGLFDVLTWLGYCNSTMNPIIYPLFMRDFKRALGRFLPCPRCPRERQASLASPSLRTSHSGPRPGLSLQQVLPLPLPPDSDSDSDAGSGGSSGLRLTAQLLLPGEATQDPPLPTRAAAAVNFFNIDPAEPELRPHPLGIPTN

Compound	5-HT6 Eff, % ([1]; Table 3) [%]	ED50 ([3]; mice) [mg/kg]	5-HT2B BRET Eff % ([4]; Table 2)	5-HT2B Eff, % ([4]; Table 3 panel) [%]	5-HT1B EC50, nM [6]	5-HT1E Eff, % ([7]; Table 3) [%]	hepatocyte CLint [8] [µL/min/1e6 cells]	half-life [8] [min]	CLint scaled [8] [mL/min/kg]	Predicted hepatic CL [9] [mL/min/kg]	clearance ([10]; plasma) [mL/min/kg]	half-life ([10]; plasma) [min]	Vd ([10]; plasma) [L/kg]	5-HT1F Eff, % ([11]; Table 3) [%]	clearance ([12]; plasma) [mL/min/kg]	half-life ([12]; plasma) [min]	Vd ([12]; plasma) [L/kg]	hepatocyte CLint [13] [µL/min/1e6 cells]	half-life [13] [min]	CLint scaled [13] [mL/min/kg]	further results
COc1cc(C(F)(F)F)ccc1CCNCc1ccccc1O [Cpd #93]	−12	0.28	53% and 52%	50	Not active	211	< 614	> 2.26	< 2870	<54.16	197	54	15.1	69	37.9	117	6.39	54.8	25.3	140	EC50 [1]: 0.6 nM; EC50 [2]: 0.5 nM; 5-HT7 Eff, % ([2]; Table 3): −12%; EC50 ([4]; 5-HT2B BRET EC50 (nM), Table 2, at least three replicate trials): 62.3 nM and 96.2 nM; EC50 ([4]; 5-HT2B EC50, nM, Table 3 panel): 64.2 nM; 5-HT1A EC50, nM [5]: Not active; EC50 [7]: 70.1 µM; Kp ([10]; read-out: Brain/plasma Ratio): 15.6; EC50 [11]: 8.09 µM; Kp ([12]; read-out: Brain/plasma Ratio): 9.55; Predicted hepatic CL [14]: 18.03 mL/min/kg
CSc1ccccc1CNCCc1ccc(C#N)cc1O [Cpd #109]	18	2.69	95%	84	Not active	12	234	5.93	1090	52.55	286	36	14	12	16.2	120	2.78	609	2.28	1550	EC50 ([1]; Table 3, read-out: 5-HT6 EC50): 5390 nM; 5-HT7 EC50, nM ([2]; Table 3): Not active; central hallucinogenic (or psychedelic) effects compared with psilocybin ([3]; conclusion from Tables 6-8): less central hallucinogenic (or psychedelic) effects than traditional psychedelic compounds such as psilocybin; duration of psychedelic effect (HTR over time) ([3]; mice, FIG. 4, different doses): less than 30 minutes; EC50 ([4]; Table 2, at least three replicate trials, read-out: 5-HT2B BRET EC50): 3140 nM; EC50 ([4]; Table 3 panel, read-out: 5-HT2B EC50): 3090 nM; 5-HT1A Eff, % [5]: 3%; EC50 ([5]; read-out: 5-HT1A EC50): 4.27 µM; EC50 ([7]; Table 3, read-out: 5-HT1E EC50): 0.814 µM; Hepatic Extraction Ratio (E) [9]: 0.95; Kp [10, 15]: 8.39; bioavailability ([10]; plasma, IM, read-out: IM f (%)): 144%; EC50 ([11]; Table 3, read-out: 5-HT1F EC50): 0.582 µM; Kp [12, 15]: 2.14; bioavailability ([12]; plasma, IM, read-out: IM f (%)): 100%; Hepatic Extraction Ratio (E) [14]: 0.99; Predicted hepatic CL [14]: 20.43 mL/min/kg
